How the values were obtained:
[1] = biological target: intracellular Leishmania donovani strain MHOM/ET/67/L82 β-lactamase expressing parasites; settings: cited from earlier work; for EC50: read-out: L. donovani EC50, ref Van Horn et al.[18]
L. donovani = settings: 15 mg/kg/day for five days, ip; cited from earlier work
[2] = Pharmacokinetic analysis after ip administration in mice; assay type: in vivo; settings: for Kp / concentration at 4 h / concentration at 12 h: Swiss Webster, mouse, ip, 10 mg/kg; for Kp: liver and spleen (versus plasma)
BALB/c mice = test: Toxicity to BALB/c mice; assay type: in vivo

Row | Compound | EC50 [1] | Kp [2] | concentration at 4 h ([2]; liver) | concentration at 12 h ([2]; liver) | concentration at 4 h ([2]; spleen) | concentration at 12 h ([2]; spleen) | toxicity to BALB/c mice (BALB/c mice; 10 mg/kg/day × 5, ip) | toxicity to BALB/c mice (BALB/c mice; 30 mg/kg/day × 5, ip) | other results
1 | c1ccc(CNc2nc(NCc3ccccc3)c3ccccc3n2)cc1 [Compound 1, N^2,N^4-dibenzylquinazoline-2,4-diamine] | 670 ± 270 nM |  |  |  |  |  |  |  | 
2 | CNc1nc(NCc2ccccc2)nc2ccccc12 [Compound 2, N^2-benzyl-N^4-methylquinazoline-2,4-diamine] | 150 ± 20 nM |  |  |  |  |  |  |  | 
3 | CC(C)Nc1nc(NCc2ccco2)c2ccccc2n1 [Compound 3] | 2500 ± 400 nM |  |  |  |  |  |  |  | 
4 | Cc1ccc2c(NCc3ccco3)nc(NC(C)C)nc2c1 [Compound 4, N^4-(furan-2-ylmethyl)-N^2-isopropyl-7-methylquinazoline-2,4-diamine] |  |  |  |  |  |  |  |  | L. donovani EC50 ([1]; ref Van Horn et al.[18]): submicromolar; activity in L. donovani-infected mice (L. donovani): promising activity
5 | Clc1ccc(CNc2nc(NCc3ccccc3)c3ccccc3n2)cc1 [Compound 15, N^4-benzyl-N^2-(4-chlorobenzyl)quinazoline-2,4-diamine] |  | 20 to 21 | 25.3 µM | 25.3 µM | 26.6 µM | 26.6 µM | no apparent adverse effects | toxic | plasma AUC relative to 40 after adjusting for dose ([2]; 10 mg/kg ip, mice): 2.8 fold
6 | CC(C)Nc1nc(NCc2ccccc2)nc2ccccc12 [Compound 40, N^2-benzyl-N^4-isopropylquinazoline-2,4-diamine] |  | 3.2 to 16 | 20.2 µM | 20.2 µM | 16.5 µM | 16.5 µM | no apparent adverse effects | toxic | 

From paper PMC4536136 (Bioorganic & medicinal chemistry, 2015)
